Results published in PMC9684134, “In vitro biochemical assessment of mixture effects of two endocrine disruptors on INS-1 cells” (Scientific Reports, 2022).
Where two headings read alike, the source gives them in different places.

Experiments:
INS-1 cells [1] = experiment: Glucose-galactose cytotoxicity assay (MTT); details: for IC50: Rattus norvegicus, INS1, 48 h
Description: Sub-culturing was in ratio 4:3. Cell density was 15,000 cells/well and treated with 200 µL of the test solution that was solubilized in glucose-free RPMI medium supplemented with 5 mM glucose or 5 mM galactose. The cells were incubated further for 48 h. The spent medium was replaced with 100 µL glucose in RPMI medium. 2,4-dinitrophenol served as positive control. The cells were finally loaded with MTT as in section “Cell viability assay” but incubation took 120 min.

[2] = Cell viability assay (MTT); format: cell-based; details: rat
Description: INS-1 cells were routinely grown at 5% CO2, 95% air at 37 °C in RPMI-1640 containing 11.1 mM glucose and supplemented with 10% foetal calf serum (FCS), 1 mM pyruvate, 10 mM 4-(2-hydroxyethyl)-1-piperazine ethane sulphonic acid (HEPES), 50 µM 2-mercaptoethanol, 100 U penicillin/mL and 100 µg streptomycin/mL. Sub-confluent cultures were trypsinized to dislodge the cells and sub-cultured at a ratio of 1:3 or 1:0.75 in other experiments. INS-1 cells were seeded into a 96-well plate at densities of 10 000, 15 000 or 30,000 cells/well. They were allowed to attach at 37 °C overnight.
The cells were incubated for 48 h with test compounds containing 20 µM or 30 µM 4-tOP and 8 µM or 12.5 µM TCS. Combination treatments (4-tOP + TCS) were 12.5 µM or 25 µM at 1:1 ratio.
Cell viability was assessed by a principle of enzymatic reduction of 3-[4, 5-dimethylthiazole-2-yl]-2, 5-diphenyltetrazolium bromide (MTT) to formazan. The treated cells respectively were loaded with 20 µL 0.5 mg/mL MTT and incubated at 37 °C for 3 h. […] The absorbance of the purple-coloured formazan was measured at 540 nm on microplate reader. IC50, (the median inhibitory concentration) was calculated with GraphPad Prism software. Data were expressed as a percentage of control.
Results were expressed as means ± SD from at least three replicate measurements. The difference between means was analyzed with ANOVA, α value = 0.05. […]

INS-1 cells [3] = experiment: Glucose uptake assay (glucose oxidase); format: cell-based, rat; details: Table 3 summary, low and high concentration, 48 h
Description: Glucose uptake was determined in INS-1 cells by monitoring the levels of glucose remaining in the culture medium after a selected treatment period. The cell density was 30 000 per well; one row was without cells to serve as maximum glucose content. Spent medium was removed and the cells were treated with 100 µL of the test compounds at concentrations indicated in section “Treatment of INS-1 cells”. The cells were incubated for a further 48 h and 5µL spent culture medium was thereafter transferred to a new plate of 96 wells and 200 µL glucose oxidase reagent added. Incubation was at 37 °C for 20 min and absorbance was read at 520 nm. Glucose uptake was obtained as the difference in glucose concentration between wells without cells and those with cells and respective treatments.

INS-1 cells [4] = experiment: Oxidative stress: ROS by CellROX orange staining; format: cell-based, rat; details: Table 3 summary, low and high concentration, 48 h
Description: (§1) The spent medium in section “Treatment of INS-1 cells” was removed and 50 µL CellROX staining solution was added to each well according to the manufacturer’s instructions and incubated at 37 °C for 30 min. Images from nine sites per well were acquired using filter sets appropriate for DAPI (4′, 6-diamidino-2-phenylindole) and TRITC (tetramethylrhodamine-isothiocyanate) which were the fluorophors. Image acquisition was done on ImageXpress Micro XLS and analyzed using the Multi-Wavelength Scoring software (Molecular Devices). In another experiment 50 µL ThiolTracker Violet staining solution was put in each well and incubated at 37 °C for 20 min. Images from nine sites per well were acquired using filter sets appropriate for DAPI and CY5 (amine reactive fluorescent dye). Image acquisition and data analysis were as done for the CellROX orange reagent. Excitation/Emission wavelength was at 545/565 nm.

INS-1 cells [5] = experiment: Oxidative stress: reduced glutathione by ThiolTracker Violet staining; format: cell-based, rat; details: 48 h; for Glutathione levels (oxidative stress summary): Table 3 summary, low and high concentration
Description: as §1

INS-1 cells [6] = format: cell-based, rat; details: for Annexin PI: mode of cell death (summary): Table 3 summary
Description: The treated cells were sub-cultured at 4:3. Annexin V-FITC staining assay was performed as recommended by the manufacturer. Melphalan (Mel) and Etoposide (Etop) served as the positive controls. Incubation lasted 48 h. The spent medium was removed and 50 µL PI staining solution was in each well and incubated for 15 min at 37 °C followed by image acquisition and data analysis as in previous experiments. Images from nine sites per well were acquired using filter sets appropriate for DAPI, FITC and Texas red dyes.

[7] = tested on: caspase 3 activation in INS-1 cells; experiment: Caspase-3 activation assay; format: cell-based, rat; details: 48 h
Description: Additional 100 µL test compounds were solubilized in the medium and incubated for 48 h. The spent medium was replaced with 100 µL of fix solution (4% formaldehyde in phosphate-buffered saline (PBS) and was fixed overnight; the cells were permeabilized with ice cold methanol, then washed with PBS and blocked using 1% BSA followed by incubation with the primary antibody at 1:200 dilution in blocking buffer for 2 h. The excess antibody was removed by washing with blocking buffer. Incubation was thereafter carried out with secondary antibody (FITC labelled) for 30 min and later washed with blocking buffer to remove excess antibody. Images from nine sites per well were acquired using filter sets appropriate for DAPI and FITC. Image analysis was done as in previous experiments.

INS-1 cells [8] = experiment: Mitochondrial mass (MitoTracker Green staining); format: cell-based, rat; details: 48 h; for Mitochondrial mass (summary): Table 3 summary, all concentrations
Description: Staining solution consisted of 10 mL of PBS to which was added 1 µL MitoTracker Green (MTG) stock (1 mM in DMSO) and 2 µL Hoechst solution (10 mg/mL in DMSO). Spent medium was removed and 50 µL staining solution added to each well (96 wells) followed by incubation at 37 °C for 20 min.

INS-1 cells [9] = experiment: Glucose stimulated calcium influx (Fluo-4); format: cell-based, rat; details: 20 mM glucose stimulation; for Intracellular calcium levels (summary): Table 3 summary, 24 h incubation; for Glucose stimulated intracellular calcium flux compared with the Blank: positive controls
Description: Fluo-4 dye is specific for intracellular Ca^2+ concentration. On binding calcium, the green fluorescence intensity increases by more than 100 folds (excitation/emission 494/[…]). Incubation was for 24 h. Staining solution was prepared by adding 20 µL Flou-4 stock solution (1 mM in DMSO) and 2 µL Hoechst solution to 10 mL of PBS. After staining, incubation was done for 30 min at 37 °C. The stain solution was removed and replaced with 50 µL PBS. Incubation was further carried out at room temperature for 20 min. Difference in fluorescence intensity between wells containing glucose and those without glucose represents calcium influx in response to glucose. Just prior to image acquisition, 20 mM glucose was added to four of the eight replicate wells and incubated at room temperature for 10 min. Image acquisition and data analyses were done as usual. Filter sets appropriate for DAPI and FITC were also used. Diazoxide and Glibenclamide were used as the positive controls.

INS-1 cells [10] = tested on: INS-1 cells
Description: (§2) TMRE is a cell permeable cationic dye that accumulates in the mitochondrial matrix according to mitochondrial membrane potential (ΔψM). Staining solution was prepared by adding 5 mL PBS, 50 µL TMRE working solution and 2 µL Hoechst 33342 solution to 5 mL of RPMI. The spent medium was removed and 50 µL staining solution was put in each well and incubated for 30 min at 37 °C. Image acquisition and data analysis were done as indicated.

INS-1 cells [11] = experiment: Mitochondrial membrane potential (TMRE staining); details: 48 h
Description: as §2

HepG2 human liver cells = tested on: HepG2 human liver cells; set-up: method as in PMID 27459410; details: cited from earlier work
[12] = set-up: method as in PMID 9894786; details: Ca2+-dependent binding to phosphatidylserine; cited from earlier work
[13] = high concentration (12.5 µM TCS, 30 µM 4-tOP, 25 µM Mix), 48 h
[14] = low concentration (8 µM TCS, 20 µM 4-tOP, 12.5 µM Mix), 48 h

O=[N+]([O-])c1ccc(O)c([N+](=O)[O-])c1 [2,4-Dinitrophenol, 2,4-dinitrophenol, reference compound]
IC50 (INS-1 cells [1]; read-out: IC50 Galactose): 24.5 µM | IC50 (INS-1 cells [1]; read-out: IC50 Glucose): 46 µM

CC(C)(C)CC(C)(C)c1ccc(O)cc1 [4-tert-Octylphenol]
IC50 at 48 h [2]: 32.5 µM | IC50 (INS-1 cells [1]; read-out: IC50 Galactose): 34.5 µM | IC50 (INS-1 cells [1]; read-out: IC50 Glucose): 33.4 µM | Glucose-galactose differential cytotoxicity (summary) (INS-1 cells [1]; rat, 48 h): Higher IC50 in galactose than in glucose | Glucose uptake (summary) (INS-1 cells [3]): Consumption pattern as with T. No significant change in glucose consumption | ROS (oxidative stress summary) (INS-1 cells [4]): Dose dependent increase in ROS but variation high hampering statistical significance | Glutathione levels (oxidative stress summary) (INS-1 cells [5]): Decrease glutathione levels corroborated ROS production | Induction of apoptosis compared with the Blank (INS-1 cells [6]; 20 µM or 30 µM, 48 h): failed to significantly induce apoptosis | Annexin PI: mode of cell death (summary) (INS-1 cells [6]): Cell death by 4-tOP was by necrosis | Proportion of live cells (INS-1 cells [6]; [13]): 73.8% | Cell death by necrosis compared with the Blank (INS-1 cells [6]; high concentration (30 µM 4-tOP), 48 h): significantly underwent necrosis | Proportion of live cells (INS-1 cells [6]; [14]): 81.4% | Caspase 3 activation compared with the Blank ([7]; test substances): Increase in caspase 3 activation not substantial | Mitochondrial mass (summary) (INS-1 cells [8]): No substantial change in mitochondrial content at all concentrations relative to the untreated cells | Intracellular calcium levels (summary) (INS-1 cells [9]): No significant changes in glucose stimulated intracellular calcium levels | Mitochondrial membrane potential MMP (summary) (INS-1 cells [10]): The increase in MMP was not substantial

CC1=NS(=O)(=O)c2cc(Cl)ccc2N1 [Diazoxide, reference compound]
Glucose stimulated intracellular calcium flux compared with the Blank (INS-1 cells [9]): significantly increased intracellular calcium flux

COc1cc([C@@H]2c3cc4c(cc3[C@@H](O[C@@H]3O[C@@H]5CO[C@@H](C)O[C@H]5[C@H](O)[C@H]3O)[C@H]3COC(=O)[C@H]23)OCO4)cc(OC)c1O [Etoposide, reference compound]
GSH compared with the Blank (INS-1 cells [5]; positive control 40 µM): significant reduction of GSH | Proportion of cells died by apoptosis (INS-1 cells [6]; positive control 40 µM, 48 h): 17.4% | Proportion of live cells (INS-1 cells [6]; positive control 40 µM, 48 h): 42.5% | Caspase 3 activation compared with the Blank ([7]; positive control 40 µM): significant increases in caspase 3 activation

COc1ccc(Cl)cc1C(=O)NCCc1ccc(S(=O)(=O)NC(=O)NC2CCCCC2)cc1 [Glibenclamide, reference compound]
Glucose stimulated intracellular calcium flux compared with the Blank (INS-1 cells [9]): significantly increased intracellular calcium flux

N[C@@H](Cc1ccc(N(CCCl)CCCl)cc1)C(=O)O [Melphalan, reference compound]
GSH compared with the Blank (INS-1 cells [5]; positive control 40 µM): significant reduction of GSH | Proportion of cells died by apoptosis (INS-1 cells [6]; positive control 40 µM, 48 h): 15.7% | Proportion of live cells (INS-1 cells [6]; positive control 40 µM, 48 h): 34.5% | Mitochondrial mass relative to the Blank (INS-1 cells [8]; positive control 40 µM): significantly increased mitochondrial mass | Mitochondrial membrane potential ΔΨM (MMP) compared to the Blank (INS-1 cells [11]; positive control 40 µM): Significant loss of mitochondrial membrane potential

Oc1cc(Cl)ccc1Oc1ccc(Cl)cc1Cl [Triclosan]
IC50 at 48 h ([2]; INS-1 cells, MTT, 48 h, read-out: IC50 for cytotoxicity against INS-1 cells): 12.7 µM | IC50 (INS-1 cells [1]; read-out: IC50 Galactose): 8.23 µM | IC50 (INS-1 cells [1]; read-out: IC50 Glucose): 11.7 µM | Glucose-galactose differential cytotoxicity (summary) (INS-1 cells [1]; Table 3 summary): Increased cytotoxicity in galactose medium indicative of potential mitochondrial toxicity | Glucose uptake (summary) (INS-1 cells [3]): Decreased glucose consumption at high concentration, increase at low concentration but not substantial compared with Blank | ROS (oxidative stress summary) (INS-1 cells [4]): Dose dependent increase in ROS but variation high hampering statistical significance | Glutathione levels (oxidative stress summary) (INS-1 cells [5]): Decreased glutathione levels corroborated ROS production | GSH compared with the Blank (INS-1 cells [5]; high concentration (12.5 µM TCS)): significant reduction of GSH | Annexin PI: mode of cell death (summary) (INS-1 cells [6]): TCS induced cell death by apoptosis | Proportion of cells died by apoptosis (INS-1 cells [6]; high concentration (12.5 µM TCS, 25 µM Mix), 48 h): 16.6% | Proportion of live cells (INS-1 cells [6]; [13]): 43.7% | Proportion of live cells (INS-1 cells [6]; [14]): 81.2% | Caspase 3 activation compared with the Blank ([7]; test substances): Increase in caspase 3 activation not substantial | Mitochondrial mass (summary) (INS-1 cells [8]): No substantial change in mitochondrial content at all the concentrations relative to the untreated cells | Intracellular calcium levels (summary) (INS-1 cells [9]): The reduction in glucose stimulated intracellular calcium flux was not substantial | IC50 (HepG2 human liver cells): 24.5 µM | Mitochondrial membrane potential MMP (summary) (INS-1 cells [11]; Table 3 summary): Significant decrease in MMP at the high concentration. only | Mitochondrial membrane potential ΔΨM (MMP) compared to the Blank (INS-1 cells [11]; high concentration (12.5 µM TCS, 25 µM Mix)): Significant loss of mitochondrial membrane potential

Annexin V: 35 kDa Ca2+-dependent phospholipid binding protein used to detect phosphatidylserine
Kd [12]: 0.007 µM
